Source: patent US6407206B1, “Peptides, methods for assaying human pepsinogen I or human pepsin I and assay kits” (Ono Pharmaceutical Co., Ltd., priority 1996, dated 2002)
Square brackets hold non-standard residues; d marks the D form. Ends that are not written are not given here. * marks the point of attachment. Phe(4-NO2) = N[C@@H](Cc1ccc([N+](=O)[O-])cc1)C(=O)O; pNA = O=[N+]([O-])c1ccc(N*)cc1; Nle = CCCC[C@H](N)C(=O)O

Tests used:
Assay type in all cases: biochemical
[1] = system: human pepsin I; assay: Digestion of the substrate by human pepsin I, assay by coloring p-NA (aminopeptidase M, absorbance at 405 nm); details: substrate 0.5 mM, 37° C.
Method: (§1) Formic acid buffer or glycine buffer (pH2.0˜3.0) containing each peptide (0.5 mM) prepared in Example 1˜5 (a)
(§2) An aqueous solution of human pepsin I or human pepsin II (0.01 mg/ml)
(§3) Aminopeptidase M (marketed from Beringer Manheim Co., derived from pig kidney) was dissolved into 1M Tris-HCl buffer (pH9.0) to be at concentration of 2U/I.
(§4) (2) Assay by Coloring p-NA
(§5) Enzyme solution I (0.1 ml) was added to Reagent (1.0 ml). After incubation of the mixture at 37° C. for 10 minutes, Enzyme solution II (0.05 ml) was added to the mixture solution (0.25 ml). After incubation of the mixture at 37° C. for 5 minutes, the increase in absorbance at 405 nm (Es) was determined. On the other hand, reagent blank value (E(BL)) was determined by the same procedure as above using purified water. According to the following, the increase in absorbance (E) was calculated.

[2] = molecular target: T1, human pepsin II (Homo sapiens, UniProt P20142); assay: Digestion of the substrate by human pepsin II, assay by HPLC (released H-Y-pNA); details: pepsin 909 ng/ml, substrate 0.5 mM, 37° C.
T1 sequence (P20142 60-388): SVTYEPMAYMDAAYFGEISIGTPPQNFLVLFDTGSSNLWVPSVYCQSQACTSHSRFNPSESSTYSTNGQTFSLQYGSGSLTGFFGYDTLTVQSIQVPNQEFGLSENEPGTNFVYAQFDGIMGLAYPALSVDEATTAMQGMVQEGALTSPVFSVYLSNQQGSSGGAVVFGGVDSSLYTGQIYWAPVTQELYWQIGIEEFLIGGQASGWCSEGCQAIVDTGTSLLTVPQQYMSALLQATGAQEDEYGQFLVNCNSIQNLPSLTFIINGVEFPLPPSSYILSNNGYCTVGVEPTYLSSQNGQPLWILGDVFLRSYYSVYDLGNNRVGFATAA
Method: as §1, §2
(§6) Enzyme solution I (0.1 ml) was added to Reagent (1.0 ml). After incubation of the mixture at 37° C. for 10, 30, 60 minutes, the mixture solution (0.3 ml) was collected. To the collected solution, 2N—NaOH (0.025 ml) was added to terminate the reaction. After addition of 2N—HCl (0.025 ml) to the mixture, protein was removed by the ultrafiltration. The assaying H-Y-pNA (Nle-pNA: Example 1 and 2; Tyr-pNA: Example 3; Phe-pNA: Example 4; Phe(NO2)-pNA: Example 5) which was released after digesting by human pepsin in the obtained solution was carried out by HPLC using C18 column.
(§7) The ratio of pepsin I/pepsin II was calculated according to the result from assay by HPLC. Such assay is carried out to confirm that a substrate was digested by pepsin I or pepsin II correctly and that H-Y-pNA was released.

[3] = system: human pepsin I; assay: Digestion of the substrate by human pepsin I, assay by HPLC (released H-Y-pNA); details: for ratio of relative activity of pepsin I/pepsin II: calculated according to the result from assay by HPLC; for Activitry of pepsin, Determination by HPLC, pepsin I: pepsin 909 ng/ml, substrate 0.5 mM, 37° C.
Method: as §1, §2, §6, §7

[4] = molecular target: T1, human pepsin II; assay: Digestion of the substrate by human pepsin II, assay by coloring p-NA (aminopeptidase M, absorbance at 405 nm); details: substrate 0.5 mM, 37° C.
Method: as §1, §2, §3, §4, §5

[5] = reaction pH 3.0, pepsin 909 ng/ml
[6] = reaction pH 2.0, pepsin 909 ng/ml

LysProIleGluPheNle-pNA.2CF3COOH (KPIEF[Nle]-pNA; also: trifluoroacetate salt (2CF3COOH)) [Example 2]
Activitry of pepsin, Determination by p-NA, pepsin I [1, 5]: 716.7 mABS/10 min · 909 ngEnz/ml
Activitry of pepsin, Determination by HPLC, pepsin II ([2]; reaction pH 3.0): 0.37 μM/min · 909 ngEnz/ml
ratio of relative activity of pepsin I/pepsin II ([3]; reaction pH 3.0): 23.2
Activitry of pepsin, Determination by HPLC, pepsin I ([3]; reaction pH 3.0): 8.6 μM/min · 909 ngEnz/ml
Activitry of pepsin, Determination by p-NA, pepsin II [4, 5]: 30.8 mABS/10 min · 909 ngEnz/ml

N^α-AcLysProIleGlu-Phe(NO2)-Nle-pNA.CF3COOH (Ac-KPIE[Phe(4-NO2)][Nle]-pNA; also: TFA salt) [Example 5(a)]
Activitry of pepsin, Determination by p-NA, pepsin I [1, 6]: 3036.2 mABS/10 min · 909 ngEnz/ml
Activitry of pepsin, Determination by HPLC, pepsin II ([2]; reaction pH 2.0): 0.69 μM/min · 909 ngEnz/ml
ratio of relative activity of pepsin I/pepsin II ([3]; reaction pH 2.0): 52.8
Activitry of pepsin, Determination by HPLC, pepsin I ([3]; reaction pH 2.0): 36.4 μM/min · 909 ngEnz/ml
Activitry of pepsin, Determination by p-NA, pepsin II [4, 6]: 57.3 mABS/10 min · 909 ngEnz/ml

LysProIleGluPheTyr-pNA.2CF3COOH (KPIEFY-pNA; also: TFA salt (2CF3COOH)) [Example 3]
Activitry of pepsin, Determination by p-NA, pepsin I [1, 6]: 1425.0 mABS/10 min · 909 ngEnz/ml
Activitry of pepsin, Determination by HPLC, pepsin II ([2]; reaction pH 2.0): 0.37 μM/min · 909 ngEnz/ml
ratio of relative activity of pepsin I/pepsin II ([3]; reaction pH 2.0): 46.2
Activitry of pepsin, Determination by HPLC, pepsin I ([3]; reaction pH 2.0): 17.1 μM/min · 909 ngEnz/ml
Activitry of pepsin, Determination by p-NA, pepsin II [4, 6]: 30.8 mABS/10 min · 909 ngEnz/ml

N^α-Ac-LysProIleGluPheNle-pNA.CF3COOH (Ac-KPIEF[Nle]-pNA; also: TFA salt) [Example 1]
Activitry of pepsin, Determination by p-NA, pepsin I [1, 6]: 4391.7 mABS/10 min · 909 ngEnz/ml
Activitry of pepsin, Determination by HPLC, pepsin II ([2]; reaction pH 2.0): 0.55 μM/min · 909 ngEnz/ml
ratio of relative activity of pepsin I/pepsin II ([3]; reaction pH 2.0): 95.8
Activitry of pepsin, Determination by HPLC, pepsin I ([3]; reaction pH 2.0): 52.7 μM/min · 909 ngEnz/ml
Activitry of pepsin, Determination by p-NA, pepsin II [4, 6]: 45.8 mABS/10 min · 909 ngEnz/ml

LysProIleGluPhePhe(NO2)-pNA.2CF3COOH (KPIEF[Phe(4-NO2)]-pNA; also: 2 TFA salt) [Example 5]
Activitry of pepsin, Determination by p-NA, pepsin I [1, 5]: 100.0 mABS/10 min · 909 ngEnz/ml
Activitry of pepsin, Determination by HPLC, pepsin II ([2]; reaction pH 3.0): 0.07 μM/min · 909 ngEnz/ml
ratio of relative activity of pepsin I/pepsin II ([3]; reaction pH 3.0): 17.1
Activitry of pepsin, Determination by HPLC, pepsin I ([3]; reaction pH 3.0): 1.2 μM/min · 909 ngEnz/ml
Activitry of pepsin, Determination by p-NA, pepsin II [4, 5]: 5.8 mABS/10 min · 909 ngEnz/ml

LysProIleGluPhePhe-pNA -2CF3COOH (KPIEFF-pNA; also: trifluoroacetate salt (2CF3COOH)) [Example 4]
Activitry of pepsin, Determination by p-NA, pepsin I [1, 5]: 908.3 mABS/10 min · 909 ngEnz/ml
Activitry of pepsin, Determination by HPLC, pepsin II ([2]; reaction pH 3.0): 0.16 μM/min · 909 ngEnz/ml
ratio of relative activity of pepsin I/pepsin II ([3]; reaction pH 3.0): 68.1
Activitry of pepsin, Determination by HPLC, pepsin I ([3]; reaction pH 3.0): 10.9 μM/min · 909 ngEnz/ml
Activitry of pepsin, Determination by p-NA, pepsin II [4, 5]: 13.3 mABS/10 min · 909 ngEnz/ml
